According to patent US20100256229A1, “COMPOSITIONS OF CHOL[…]” (priority 2009, published 2010):
Counter-ions that a name gives are not always drawn.

Legend:
[1] = target: T1, rhAChE (Homo sapiens, UniProt P22303); experiment: Decarbamylation / reconstitution of inhibited enzyme; type: biochemical; conditions: for Decarbamylation rate k: phosphate buffer, 37° C., first-order model
Description: Next, the release of amphetamine from inhibited cholinesterase was investigated indirectly by monitoring reconstitution of enzyme activity as described above. […] The enzyme was separated from small organic molecules (carbamate and possible degradation products) by size exclusion chromatography over a Sephadex column. Purified, inhibited enzyme was incubated in phosphate buffer at 37° C., aliquots were drawn at various time points and the enzymatic activity was determined as described above. The data were plotted as the natural logarithm of the percent inhibition versus time according to a first-order kinetics model. The decarbamylation rate constant k was determined as the slope of this line. The halflife t1/2 is directly related to k (k=−ln(0.500)/t1/2).

[2] = test system: scopolamine model of passive avoidance; experiment: Scopolamine model of passive avoidance; type: in vivo, rats; conditions: 8 and 12 mg/kg i.p. 30 minutes before training; scopolamine 0.2 mg/kg s.c.; p<0.01
Description: Prior to training, rats were injected with scopolamine hydrobromide (0.2 mg/kg, s.c, 40 minutes before training) and with either saline or compound 4a (8, 12, 16 or 24 mg/kg, i.p, 30 minutes prior to training). The animals received a retention test 24 hours following training. The retention test was identical to training except that no foot-shock or drug was delivered. Latency to enter the dark chamber was recorded.

[3] = test system: total brain cholinesterase; experiment: In vivo inhibition of brain cholinesterase after oral dosing; parameters: species or system rats
Description: (§1) Following administration, rats were sacrificed and blood and brain samples were collected, processed and ChE activity was determined spectrophotometrically as described above.

[4] = target: Recombinant human cholinesterase (Homo sapiens, UniProt P22303); experiment: Amphetamine release from inhibited enzyme, LC/MS/MS; type: biochemical
[5] = target: T1, rhAChE; conditions: for IC50: read-out: rhAChE IC50
[6] = Maximum Tolerated Dose determination
Description: The in vivo effectiveness of the stigmine compounds in vivo inhibitors was evaluated. Initially, the Maximum Tolerated Dose (MTD) was determined for each compound. The MTD was defined as the dose at which clear, yet reversible and non-life threatening cholinergic effects were observed.
as §1

[7] = target: T2, BuChE (human, purified from) (Homo sapiens, UniProt P06276); experiment: In vitro inhibition of BuChE, modified Ellman procedure; type: biochemical; conditions: purified human butyrylcholinesterase (plasma); mean of two or three independent experiments; read-out: hBuChE IC50
T2 construct: BuChE (human, purified from erythrocytes); from tissue

[8] = test system: total plasma cholinesterase; experiment: In vivo inhibition of plasma cholinesterase after oral dosing; parameters: species or system rats
Description: as §1

[9] = test system: male Wistar rats; experiment: Wake promotion, EEG/EMG sleep-wake monitoring (SCORE2004); conditions: for duration of wakefulness (total minutes of sleep loss): dosed at CT-5, various dose ranges
Description: Test compounds in various dose ranges or vehicle were administered to male Wistar rats 5 hours after lights on (CT-5). EEG, EMG, locomotor activity, drink- and food-related activity, and body temperature were concurrently monitored for 30 hr before and after treatment from rats living in separate isolated recording chambers.

[10] = test system: rats trained to discriminate methamphetamine from saline; experiment: Drug discrimination (methamphetamine versus saline); type: in vivo; conditions: 0.1-3.2 mg/kg i.p. or 0.32-10 mg/kg p.o.
Excerpt: Drug discrimination is an operant paradigm that enables assessment of drug abuse liability (Yasar & Bergman, 1994. Amphetamine-like effect of 1-deprenyl (selegiline) in drug discrimination studies. Clin. Pharmacol. Therap. 56 (S78), 768-773). In this paradigm, psychostimulant properties of compounds may be determined in rats trained to discriminate methamphetamine from saline. Hungry rats are initially placed in a test apparatus where they learn that pressing either of two levers results in delivery of a food pellet. […]. On other days, rats are pretreated with vehicle, and must then select the opposite lever in order to obtain food. In this way, rats must learn to use the interoceptive cues generated by the psychostimulant drug to guide its choice of levers. Once lever pressing to a predetermined criterion has been established, a test compound can be administered. […]. If the rat chooses the methamphetamine lever, the test drug is said to have shown stimulus generalization; that is, it is perceived to be methamphetamine-like by the rat. […].

[11] = Hygroscopicity testing and sorption isotherm; type: physicochemical; conditions: for hygroscopicity testing, appearance: sulfate after 3 days, fumarate after 7 days
[12] = Solubility (formulation studies)
[13] = Mechanical stress (micronizing); type: physicochemical; conditions: micronizing 20 minutes at 30 Hz, after standing 20 minutes; ball mill stress
Excerpt: FIG. 13 is two microscopic views of the hydrogen fumarate salt of compound 3d under mechanical stress.

[14] = Solid state and solution stability; conditions: for solid state stability to heat: 40° C. for 7 days; for solid state stability to UV: 220 W-h/m^2; for solid state stability to visible light: visible light exposure, 7.3×10^6 lux hours
[15] = 60 minutes after oral dosing at MTD or highest dose tested, n = 4
[16] = oral dosing at MTD, mean of three measurements between 30 and 180 min following dosing

T2 sequence (P06276 29-602): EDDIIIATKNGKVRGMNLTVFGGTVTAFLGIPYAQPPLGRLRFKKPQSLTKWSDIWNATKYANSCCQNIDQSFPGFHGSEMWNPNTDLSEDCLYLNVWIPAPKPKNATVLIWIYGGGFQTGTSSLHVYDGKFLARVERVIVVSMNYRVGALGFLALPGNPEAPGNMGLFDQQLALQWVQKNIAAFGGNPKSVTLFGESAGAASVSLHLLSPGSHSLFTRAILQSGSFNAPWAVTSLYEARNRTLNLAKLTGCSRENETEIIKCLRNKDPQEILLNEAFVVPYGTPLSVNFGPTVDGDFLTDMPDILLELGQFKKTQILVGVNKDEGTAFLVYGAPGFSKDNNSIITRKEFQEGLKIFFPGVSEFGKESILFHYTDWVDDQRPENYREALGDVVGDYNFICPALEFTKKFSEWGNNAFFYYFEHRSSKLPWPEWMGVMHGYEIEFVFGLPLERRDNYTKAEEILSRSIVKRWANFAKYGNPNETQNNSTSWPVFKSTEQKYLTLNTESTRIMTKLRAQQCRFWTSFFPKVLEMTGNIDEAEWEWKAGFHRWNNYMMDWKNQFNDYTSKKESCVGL
T1 sequence (P22303 32-614): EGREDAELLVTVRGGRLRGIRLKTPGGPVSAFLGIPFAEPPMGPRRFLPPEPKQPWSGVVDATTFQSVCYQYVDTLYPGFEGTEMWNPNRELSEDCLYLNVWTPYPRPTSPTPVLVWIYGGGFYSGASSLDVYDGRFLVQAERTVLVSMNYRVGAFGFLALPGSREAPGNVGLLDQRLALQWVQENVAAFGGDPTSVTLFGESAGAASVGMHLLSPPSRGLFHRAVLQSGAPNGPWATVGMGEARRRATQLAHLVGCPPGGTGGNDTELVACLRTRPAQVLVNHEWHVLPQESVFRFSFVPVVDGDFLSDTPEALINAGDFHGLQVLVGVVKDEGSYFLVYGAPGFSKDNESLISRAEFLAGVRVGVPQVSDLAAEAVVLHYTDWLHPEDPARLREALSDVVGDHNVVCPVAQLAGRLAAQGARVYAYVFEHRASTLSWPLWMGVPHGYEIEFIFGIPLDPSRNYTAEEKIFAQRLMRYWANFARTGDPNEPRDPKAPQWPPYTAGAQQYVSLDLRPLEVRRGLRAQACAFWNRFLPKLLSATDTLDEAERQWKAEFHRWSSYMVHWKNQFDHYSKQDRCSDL
Recombinant human cholinesterase, sequence (P22303 32-614): as above

For `C[C@@H](Cc1ccccc1)NC(=O)Oc1cccc([C@H](C)N(C)C)c1` [Compound 4a], the enzyme reconstitution ([1]; at 4 h) was 80%, the Decarbamylation rate k [1] was 0.558 h⁻¹ and the “scopolamine-induced amnesia, step-through latency at 24 h retention test” value [2] was “alleviated”. For the same compound, the “Brain ChEI” value [3, 15] was 72%, the “d-amphetamine in decarbamylation aliquots” value ([4]; aliquots drawn 4 h later) was 53 ng/mL and the “amphetamine in decarbamylation aliquots” value ([4]; aliquots drawn at t=0) was “did not contain amphetamine”. For the same compound, the “more selective for AChE than rivastigmine” value [5] was 225 fold, the IC50 [5] was 508 nM and the MTD ([6]; rat, in vivo, po) was greater than 100 mg/kg. The IC50 [7] was 7320 nM and the “Plasma ChEI” value [8, 15] was 59%.

With `CCN(C)C(=O)Oc1cccc([C@H](C)N(C)C)c1` [Rivastigmine, rivastigmine, reference compound] the “Brain ChEI” value [3, 16] was 56%, the MTD ([6]; oral, dose with clear, reversible, non-life threatening cholinergic effects, or highest dose tested) was 5 mg/kg and the “Plasma ChEI” value [8, 16] was 39%. The “duration of wakefulness (total minutes of sleep loss)” value [9] was “increased wakefulness”.

With `C[C@@H](c1cccc(OC(=O)N(C)[C@@H](C)Cc2ccccc2)c1)N(C)C` [D, s-riva-d-methamphetamine] the “duration of wakefulness (total minutes of sleep loss)” value [9] was “dose-related increase in wakefulness”.

In the case of `C[C@H](Cc1ccccc1)N(C)C(=O)Oc1cccc([C@H](C)N(C)C)c1` [Compound B, s-riva-l-methamphetamine], the “stimulus generalization to methamphetamine (lever selection)” value [10] is reported as “did not select the methamphetamine lever”, the “duration of wakefulness (total minutes of sleep loss)” value [9] is reported as “dose-related increase in wakefulness” and the rebound hypersomnolence ([9]; following administration) is reported as “not observed”. For the same compound, the body temperature ([9]; rat, in vivo) was “reduction in body temperature”, the locomotor activity ([9]; rat, in vivo) was “did not cause locomotor hyperactivity” and the “increase in wakefulness compared with reference compounds” value ([9]; versus d-amphetamine, rivastigmine, modafinil) was “surpassed that seen with the reference compounds tested”.

In the case of `C[C@H](Cc1ccccc1)NC(=O)Oc1cccc([C@H](C)N(C)C)c1` [Compound 4b], the Decarbamylation rate k [1] is reported as 0.057 h⁻¹, the “Brain ChEI” value [3, 15] is reported as 25% and the IC50 [5] is reported as 404 nM. The MTD ([6]; rat, in vivo, po) was 32 mg/kg, the IC50 [7] was 416 nM and the “Plasma ChEI” value [8, 15] was 26%.

With `C[C@H](Cc1ccccc1)N(C)C(=O)Oc1cccc([C@H](C)N(C)C)c1` [hydrogen sulfate salt of compound 3d, 3-(S)-1-(Dimethylamino)ethyl)phenyl methyl-((R)-1-phenylpropan-2 yl)carbamate Hydrogen Sulfate] the “hygroscopicity testing, appearance” value ([11]; 40° C./75 RH) was “deliquesces”.

In the case of `C[C@@H](c1cccc(OC(=O)N(C)[C@@H](C)Cc2ccccc2)c1)N(C)C` [Compound 4c], the Decarbamylation rate k [1] is reported as 0.003 h⁻¹, the “Brain ChEI” value [3, 15] is reported as 50% and the MTD ([6]; rat, in vivo, po) is reported as greater than 64 mg/kg. For the same compound, the IC50 [7] was 334 nM and the “Plasma ChEI” value [8, 15] was 50%.

In the case of `CC(c1cccc(OC(=O)N(C)C(C)Cc2ccccc2)c1)N(C)C` (centres unmarked) [Compound 4d], the Decarbamylation rate k [1] is reported as 0.011 h⁻¹, the “Brain ChEI” value [3, 15] is reported as 64% and the MTD ([6]; rat, in vivo, po) is reported as 10 mg/kg. For the same compound, the IC50 [7] was 24400 nM and the “Plasma ChEI” value [8, 15] was 45%.

In the case of `NC(=O)C[S+]([O-])C(c1ccccc1)c1ccccc1` (centres unmarked) [modafinil, reference compound], the “duration of wakefulness (total minutes of sleep loss)” value [9] is reported as “increased the duration of wakefulness”.

With `C[C@H](Cc1ccccc1)N(C)C(=O)Oc1cccc([C@H](C)N(C)C)c1` [Compound 3d, 3-((S)-1-(dimethylamino)ethyl)phenyl methyl-((R)-1-phenylpropan-2 yl)carbamate] the solubility ([12]; pH 3, aqueous buffer) was greater than 50 mg/mL, the solubility ([12]; sixteen vehicles for oral dosing (rodents), aqueous with cosolvent or surfactant or cyclodextrin) was greater than 50 mg/mL and the mechanical stress [13] was “instability to extreme thermal conditions”. The “hygroscopicity testing by DSC and XRPD” value ([11]; 40° C./75 RH, 7 days) was “stability over 7 days”, the “maximum moisture uptake (sorption isotherm)” value ([11]; at 75 RH) was “about 1%” and the “solid state stability to heat” value [14] was “stable”. The “solid state stability to UV” value [14] was “stable”, the solution stability ([14]; pH 4, 5, 6, after 7 days, HPLC recovery) was “stable” and the “solid state stability to visible light” value [14] was “no change”.

With `C[C@@H](Cc1ccccc1)NC(=O)Oc1cccc([C@H](C)N(C)C)c1` [C, s-riva-d-amphetamine] the “duration of wakefulness (total minutes of sleep loss)” value [9] was “dose-related increase in wakefulness”.

For `C[C@H](Cc1ccccc1)N(C)C(=O)Oc1cccc([C@H](C)N(C)C)c1.O=C(O)/C=C/C(=O)O` [hydrogen fumarate salt of compound 3d, 3-((S)-1-(Dimethylamino)ethyl)phenyl methyl-((R)-1-phenylpropan-2 yl)carbamate Hydrogen Fumarate], the mechanical stress [13] was “gumming”, the “hygroscopicity testing, appearance” value ([11]; 40° C./75 RH) was “solid” and the “hygroscopicity, analysis by microscopy” value ([11]; after 7 days at 75% relative humidity) was “remains crystalline with traces of amorphous material”. The “solid state stability to heat” value [14] was “stable”, the “solid state stability to UV” value [14] was “stable” and the “chemical stability in water” value ([14]; up to 7 days at 40° C.) was “stable”. The “solid state stability to visible light” value [14] was “stable”.

For `C[C@H](Cc1ccccc1)NC(=O)Oc1cccc([C@H](C)N(C)C)c1` [Compound A, s-riva-l-amphetamine], the “duration of wakefulness (total minutes of sleep loss)” value [9] was “dose-related increase in wakefulness”.

For `C[C@H](N)Cc1ccccc1` [d-amphetamine, reference compound], the “duration of wakefulness (total minutes of sleep loss)” value [9] was “increased the duration of wakefulness”.
